These results are taken from article PMC5218480 (PLoS ONE, 2017).

For the experiment, the system named is MV-4-11 cells. Put plainly: Gene expression microarray analysis (Affymetrix PrimeView) and GSEA. The experiment is classed as cell-based, human. Details: RFU PODN (11730768_x_at) / Fold change /veh PODN (11730768_x_at) / RFU LINC00158 (11744669_a_at) / Fold change /veh LINC00158 (11744669_a_at) / RFU DUSP10 (11751237_a_at) / Fold change /veh DUSP10 (11751237_a_at) / RFU ID3 (11757404_x_at) / Fold change /veh ID3 (11757404_x_at) / RFU PLEKHG5 (11737974_s_at) / Fold change /veh PLEKHG5 (11737974_s_at) / RFU LRRC4B (11730491_at) / Fold change /veh LRRC4B (11730491_at) / RFU GIMAP4 (11747438_a_at) / Fold change /veh GIMAP4 (11747438_a_at) / RFU KRT8 (11758183_x_at) / Fold change /veh KRT8 (11758183_x_at) / RFU CNN1 (11734310_a_at) / Fold change /veh CNN1 (11734310_a_at) / RFU VPS37D (11726825_at) / Fold change /veh VPS37D (11726825_at) / RFU C10orf10 (11716522_x_at) / Fold change /veh C10orf10 (11716522_x_at) / RFU KIR2DL2 /// KIR2DL4 /// KIR2DL5A /// KIR2DL5B /// KIR2DS1 /// KIR2DS2 /// KIR2DS3 /// KIR2DS4 /// KIR3DL3 /// KIR3DL3 /// KIR3DS1 (11738374_at) / Fold change /veh KIR2DL2 /// KIR2DL4 /// KIR2DL5A /// KIR2DL5B /// KIR2DS1 /// KIR2DS2 /// KIR2DS3 /// KIR2DS4 /// KIR3DL3 /// KIR3DL3 /// KIR3DS1 (11738374_at) / RFU C1QL1 (11718748_at) / Fold change /veh C1QL1 (11718748_at) / RFU TMPRSS4 (11747572_a_at) / Fold change /veh TMPRSS4 (11747572_a_at) / RFU HAMP (11756126_x_at) / Fold change /veh HAMP (11756126_x_at) / RFU RNFT2 (11725882_a_at) / Fold change /veh RNFT2 (11725882_a_at) / RFU NR4A2 (11747474_a_at) / Fold change /veh NR4A2 (11747474_a_at) / RFU ABCC12 (11746883_a_at) / Fold change /veh ABCC12 (11746883_a_at) / RFU TMEM136 (11760407_x_at) / Fold change /veh TMEM136 (11760407_x_at) / RFU CLDN22 /// WWC2 (11732394_at) / Fold change /veh CLDN22 /// WWC2 (11732394_at) / RFU HLA-DPB1 (11760878_x_at) / Fold change /veh HLA-DPB1 (11760878_x_at) / RFU SPINT1 (11716480_a_at) / Fold change /veh SPINT1 (11716480_a_at) / RFU GAP43 (11754022_s_at) / Fold change /veh GAP43 (11754022_s_at) / RFU A4GNT (11735810_at) / Fold change /veh A4GNT (11735810_at) / RFU PRB3 (11715151_x_at) / Fold change /veh PRB3 (11715151_x_at) / RFU TUBB4B (11761932_at) / Fold change /veh TUBB4B (11761932_at) / RFU CAPN14 (11732068_a_at) / Fold change /veh CAPN14 (11732068_a_at) / RFU TMCC2 (11721928_a_at) / Fold change /veh TMCC2 (11721928_a_at) / RFU IRGQ (11745062_a_at) / Fold change /veh IRGQ (11745062_a_at) / RFU FAM174B (11720279_a_at) / Fold change /veh FAM174B (11720279_a_at) / RFU TMPRSS4 (11748680_a_at) / Fold change /veh TMPRSS4 (11748680_a_at) / RFU FAM212B (11763350_a_at) / Fold change /veh FAM212B (11763350_a_at) / RFU PLEKHG5 (11743358_a_at) / Fold change /veh PLEKHG5 (11743358_a_at) / RFU ZSCAN30 (11745921_a_at) / Fold change /veh ZSCAN30 (11745921_a_at) / RFU CMKLR1 (11741424_a_at) / Fold change /veh CMKLR1 (11741424_a_at) / RFU LOC101060620 /// MAPK8IP1 (11723275_at) / Fold change /veh LOC101060620 /// MAPK8IP1 (11723275_at) / RFU SPTSSB (11747773_x_at) / Fold change /veh SPTSSB (11747773_x_at) / RFU PRSS12 (11739890_at) / Fold change /veh PRSS12 (11739890_at) / RFU BIN1 (11741810_x_at) / Fold change /veh BIN1 (11741810_x_at) / RFU WNT11 (11732464_a_at) / Fold change /veh WNT11 (11732464_a_at) / RFU C10orf10 (11716521_a_at) / Fold change /veh C10orf10 (11716521_a_at) / RFU C5orf56 (11738089_at) / Fold change /veh C5orf56 (11738089_at) / RFU CYB561 (11721691_x_at) / Fold change /veh CYB561 (11721691_x_at) / RFU ANKRD19P (11752326_a_at) / Fold change /veh ANKRD19P (11752326_a_at) / RFU OR2T12 /// OR2T33 /// OR2T8 (11738714_s_at) / Fold change /veh OR2T12 /// OR2T33 /// OR2T8 (11738714_s_at) / RFU VCAN (11748164_a_at) / Fold change /veh VCAN (11748164_a_at) / RFU JSRP1 (11732532_at) / Fold change /veh JSRP1 (11732532_at) / RFU KRTAP10-11 (11738290_x_at) / Fold change /veh KRTAP10-11 (11738290_x_at) / RFU MYO3A (11730013_a_at) / Fold change /veh MYO3A (11730013_a_at) / RFU EBF3 (11725865_a_at) / Fold change /veh EBF3 (11725865_a_at) / RFU CAMK2N1 (11719241_x_at) / Fold change /veh CAMK2N1 (11719241_x_at) / RFU C5orf56 (11738088_a_at) / Fold change /veh C5orf56 (11738088_a_at) / RFU OLFML3 (11715873_a_at) / Fold change /veh OLFML3 (11715873_a_at) / RFU LOC100653217 /// NTM (11731650_a_at) / Fold change /veh LOC100653217 /// NTM (11731650_a_at) / RFU MAPK11 (11762145_a_at) / Fold change /veh MAPK11 (11762145_a_at) / RFU FIZ1 (11724087_x_at) / Fold change /veh FIZ1 (11724087_x_at) / RFU OASL (11726364_x_at) / Fold change /veh OASL (11726364_x_at) / RFU SOX15 (11748057_x_at) / Fold change /veh SOX15 (11748057_x_at) / RFU CD79A (11719716_a_at) / Fold change /veh CD79A (11719716_a_at) / RFU HIST1H1D (11736915_at) / Fold change /veh HIST1H1D (11736915_at) / RFU CASKIN2 (11723855_a_at) / Fold change /veh CASKIN2 (11723855_a_at) / RFU LOC730098 (11760151_x_at) / Fold change /veh LOC730098 (11760151_x_at) / RFU OR4N2 (11742367_at) / Fold change /veh OR4N2 (11742367_at) / RFU PRRT2 (11749266_a_at) / Fold change /veh PRRT2 (11749266_a_at) / RFU SNX32 (11753110_a_at) / Fold change /veh SNX32 (11753110_a_at) / RFU CDHR5 (11726645_a_at) / Fold change /veh CDHR5 (11726645_a_at) / RFU RCAN1 (11760418_a_at) / Fold change /veh RCAN1 (11760418_a_at) / RFU FAM167A (11723789_a_at) / Fold change /veh FAM167A (11723789_a_at) / RFU FAM26E (11764081_at) / Fold change /veh FAM26E (11764081_at) / RFU ISYNA1 (11749810_s_at) / Fold change /veh ISYNA1 (11749810_s_at) / RFU ACY1 (11761880_at) / Fold change /veh ACY1 (11761880_at) / RFU 11764098_at / Fold change /veh 11764098_at / RFU SAMD14 (11745864_x_at) / Fold change /veh SAMD14 (11745864_x_at) / RFU NPB (11741838_a_at) / Fold change /veh NPB (11741838_a_at) / RFU TMPRSS6 (11731388_a_at) / Fold change /veh TMPRSS6 (11731388_a_at) / RFU KRTAP10-2 (11738614_at) / Fold change /veh KRTAP10-2 (11738614_at) / RFU ARHGAP8 /// PRR5-ARHGAP8 (11727945_x_at) / Fold change /veh ARHGAP8 /// PRR5-ARHGAP8 (11727945_x_at) / RFU KRTAP5-7 /// NADSYN1 (11734609_at) / Fold change /veh KRTAP5-7 /// NADSYN1 (11734609_at) / RFU RASL12 (11751679_a_at) / Fold change /veh RASL12 (11751679_a_at) / RFU CDKN2B (11736163_a_at) / Fold change /veh CDKN2B (11736163_a_at) / RFU PRF1 (11729649_at) / Fold change /veh PRF1 (11729649_at) / RFU, ZNF638 /// ZNF638-IT1 / Fold change vs veh, ZNF638 /// ZNF638-IT1 / RFU, PANK3 / Fold change vs veh, PANK3 / RFU, SH3YL1 / Fold change vs veh, SH3YL1 / RFU, ZEB2 / Fold change vs veh, ZEB2 / RFU, NRIP1 / Fold change vs veh, NRIP1 / RFU, PTTG1IP / Fold change vs veh, PTTG1IP / RFU, CAPN2 / Fold change vs veh, CAPN2 / RFU, MED14 / Fold change vs veh, MED14 / RFU, SNORA58 / Fold change vs veh, SNORA58 / RFU, C1orf63 / Fold change vs veh, C1orf63 / RFU, LRRFIP1 / Fold change vs veh, LRRFIP1 / RFU, NDUFAF7 / Fold change vs veh, NDUFAF7 / RFU, SLC12A2 / Fold change vs veh, SLC12A2 / RFU, IBTK / Fold change vs veh, IBTK / RFU, ESF1 / Fold change vs veh, ESF1 / Fold change vs veh, TMEM50B / RFU, TAOK1 / Fold change vs veh, TAOK1 / RFU, ACBD3 / Fold change vs veh, ACBD3 / RFU, TMA16 / Fold change vs veh, TMA16 / RFU, RWDD3 / Fold change vs veh, RWDD3 / RFU, BCAT1 / Fold change vs veh, BCAT1 / RFU, EDEM3 / Fold change vs veh, EDEM3 / RFU, TMEM33 / Fold change vs veh, TMEM33 / RFU, WDR75 / Fold change vs veh, WDR75 / RFU, AHCTF1 / Fold change vs veh, AHCTF1 / RFU, TFRC / Fold change vs veh, TFRC / RFU, ZDHHC17 / Fold change vs veh, ZDHHC17 / RFU, NOM1 / Fold change vs veh, NOM1 / RFU, ARL8B / Fold change vs veh, ARL8B / RFU, ZBTB11 / Fold change vs veh, ZBTB11 / RFU, TAMM41 / Fold change vs veh, TAMM41 / RFU, KIAA1704 /// LOC100996395 / Fold change vs veh, KIAA1704 /// LOC100996395 / RFU, ING1 / Fold change vs veh, ING1 / RFU, TRMT61B / Fold change vs veh, TRMT61B / RFU, FUBP3 / Fold change vs veh, FUBP3 / RFU, TP53 / Fold change vs veh, TP53 / RFU, TNKS2 / Fold change vs veh, TNKS2 / RFU, ZFP14 / Fold change vs veh, ZFP14 / RFU, ACTR2 / Fold change vs veh, ACTR2 / RFU, PPP3R1 / Fold change vs veh, PPP3R1 / RFU, PIK3R1 / Fold change vs veh, PIK3R1 / RFU, HNRNPA1 / Fold change vs veh, HNRNPA1 / RFU, RNF170 / Fold change vs veh, RNF170 / RFU, ZNF28 / Fold change vs veh, ZNF28 / RFU, RNGTT / Fold change vs veh, RNGTT / RFU, OGT / Fold change vs veh, OGT / RFU, BRD1 / Fold change vs veh, BRD1 / RFU, MARS / Fold change vs veh, MARS / RFU, ZNF655 / Fold change vs veh, ZNF655 / RFU, FAHD1 / Fold change vs veh, FAHD1 / RFU, BDP1 / Fold change vs veh, BDP1 / RFU, LRRCC1 / Fold change vs veh, LRRCC1 / RFU, ARID1A / Fold change vs veh, ARID1A / RFU, ZNF146 / Fold change vs veh, ZNF146 / RFU, ZNF330 / Fold change vs veh, ZNF330 / RFU, GPN3 / Fold change vs veh, GPN3 / RFU, C9orf123 / Fold change vs veh, C9orf123 / RFU, N4BP2L2 / Fold change vs veh, N4BP2L2 / RFU, ARFIP1 / Fold change vs veh, ARFIP1 / RFU, FAM179B / Fold change vs veh, FAM179B / RFU, BCL10 / Fold change vs veh, BCL10 / RFU, UHRF1BP1L / Fold change vs veh, UHRF1BP1L / RFU, BET1 / Fold change vs veh, BET1 / RFU, CNOT2 / Fold change vs veh, CNOT2 / RFU, ZNF268 / Fold change vs veh, ZNF268 / Fold change vs veh, ZNF507 / RFU, DGCR2 / Fold change vs veh, DGCR2 / RFU, WDSUB1 / Fold change vs veh, WDSUB1 / Fold change vs veh, HSP90B1 /// MIR3652 / RFU, ADSS / Fold change vs veh, ADSS / RFU, GK / Fold change vs veh, GK / RFU, ZNF148 / Fold change vs veh, ZNF148 / RFU, TAF9 / Fold change vs veh, TAF9 / RFU, SLC1A5 / Fold change vs veh, SLC1A5 / RFU, SLMO2 / Fold change vs veh, SLMO2 / RFU, ABCC4 / Fold change vs veh, ABCC4 / RFU, LOC101060439 /// RAP1B / Fold change vs veh, LOC101060439 /// RAP1B / RFU, RFX7 / Fold change vs veh, RFX7 / RFU, GTPBP10 / Fold change vs veh, GTPBP10 / RFU, CNEP1R1 / Fold change vs veh, CNEP1R1 / RFU, BIVM-ERCC5 /// ERCC5 / Fold change vs veh, BIVM-ERCC5 /// ERCC5 / RFU, ILF3 / Fold change vs veh, ILF3 / RFU 11762660_at / Fold change /veh 11762660_at / RFU VCAN (11757783_s_at) / Fold change /veh VCAN (11757783_s_at) / RFU DDX43 (11728927_at) / Fold change /veh DDX43 (11728927_at) / RFU KRT8 (11758188_x_at) / Fold change /veh KRT8 (11758188_x_at) / RFU NKD1 (11759106_at) / Fold change /veh NKD1 (11759106_at) / RFU SRD5A1 (11742802_a_at) / Fold change /veh SRD5A1 (11742802_a_at) / RFU TPSAB1 /// TPSB2 (11721975_s_at) / Fold change /veh TPSAB1 /// TPSB2 (11721975_s_at) / RFU GSTM3 (11746129_a_at) / Fold change /veh GSTM3 (11746129_a_at) / RFU IL23R (11737362_x_at) / Fold change /veh IL23R (11737362_x_at) / RFU TMEM51 (11727254_a_at) / Fold change /veh TMEM51 (11727254_a_at) / RFU PIWIL2 (11732686_x_at) / Fold change /veh PIWIL2 (11732686_x_at) / RFU ORM1 (11744905_x_at) / Fold change /veh ORM1 (11744905_x_at) / RFU CCDC152 (11743942_at) / Fold change /veh CCDC152 (11743942_at) / RFU ECM1 (11717891_a_at) / Fold change /veh ECM1 (11717891_a_at) / RFU IL23R (11748794_a_at) / Fold change /veh IL23R (11748794_a_at) / RFU TNFAIP8L3 (11732012_x_at) / Fold change /veh TNFAIP8L3 (11732012_x_at) / RFU MBOAT4 (11741988_at) / Fold change /veh MBOAT4 (11741988_at) / RFU 11764193_at / Fold change /veh 11764193_at / RFU TMEM53 (11763286_at) / Fold change /veh TMEM53 (11763286_at) / RFU MAGEB2 (11727129_at) / Fold change /veh MAGEB2 (11727129_at) / RFU TMEM200A (11744735_a_at) / Fold change /veh TMEM200A (11744735_a_at) / RFU CCDC152 (11751479_a_at) / Fold change /veh CCDC152 (11751479_a_at) / RFU FAM211A (11726209_a_at) / Fold change /veh FAM211A (11726209_a_at) / RFU RGS16 (11746705_a_at) / Fold change /veh RGS16 (11746705_a_at) / RFU VCAN (11755009_s_at) / Fold change /veh VCAN (11755009_s_at) / RFU RHOB (11743442_s_at) / Fold change /veh RHOB (11743442_s_at) / RFU RGS16 (11720943_a_at) / Fold change /veh RGS16 (11720943_a_at) / RFU RGS16 (11720944_at) / Fold change /veh RGS16 (11720944_at) / RFU, VPS4B / Fold change vs veh, VPS4B / RFU, CREB1 / Fold change vs veh, CREB1 / RFU, DNAJC13 / Fold change vs veh, DNAJC13 / RFU, GNAQ / Fold change vs veh, GNAQ / RFU, CDK5R1 / Fold change vs veh, CDK5R1 / RFU, ZRANB3 / Fold change vs veh, ZRANB3 / RFU, CUL4A / Fold change vs veh, CUL4A / RFU, CCNY / Fold change vs veh, CCNY / RFU, UFL1 / Fold change vs veh, UFL1 / RFU, COG3 / Fold change vs veh, COG3 / RFU, DIAPH2 / Fold change vs veh, DIAPH2 / RFU, SKA2 / Fold change vs veh, SKA2 / RFU, AFF3 / Fold change vs veh, AFF3 / RFU, LMF1 / Fold change vs veh, LMF1 / RFU, IPO11 / Fold change vs veh, IPO11 / RFU, DFFB / Fold change vs veh, DFFB / RFU, FOXP1 / Fold change vs veh, FOXP1 / RFU, CARD8 / Fold change vs veh, CARD8 / RFU, STRN3 / Fold change vs veh, STRN3 / RFU, ADK / Fold change vs veh, ADK / RFU, RASSF2 / Fold change vs veh, RASSF2 / RFU, WIPF1 / Fold change vs veh, WIPF1 / RFU, LARP1B / Fold change vs veh, LARP1B / RFU, RASA1 / Fold change vs veh, RASA1 / RFU, RB1 / Fold change vs veh, RB1 / RFU, PPFIA1 / Fold change vs veh, PPFIA1 / RFU, MAT2A / Fold change vs veh, MAT2A / RFU, CCT5 / Fold change vs veh, CCT5 / RFU, WDR92 / Fold change vs veh, WDR92 / RFU, CUX1 / Fold change vs veh, CUX1 / RFU, TTC7A / Fold change vs veh, TTC7A / RFU, TMEM135 / Fold change vs veh, TMEM135 / RFU, DEPTOR / Fold change vs veh, DEPTOR / RFU, CPM / Fold change vs veh, CPM / RFU, DNAJB6 / Fold change vs veh, DNAJB6 / RFU, CACNA2D3 / Fold change vs veh, CACNA2D3 / RFU, DTX4 / Fold change vs veh, DTX4 / RFU, TFCP2 / Fold change vs veh, TFCP2 / RFU, GMCL1 /// GMCL1P1 / Fold change vs veh, GMCL1 /// GMCL1P1 / RFU, AEBP2 / Fold change vs veh, AEBP2 / RFU, SNHG1 /// SNORD22 /// SNORD25 /// SNORD26 /// SNORD27 /// SNORD28 /// SNORD29 /// SNORD31 / Fold change vs veh, SNHG1 /// SNORD22 /// SNORD25 /// SNORD26 /// SNORD27 /// SNORD28 /// SNORD29 /// SNORD31 / Fold change (Aza/veh), C12orf56 (ProbeSet 11735607_a_at) / Fold change (ACY-1035/veh), C12orf56 (ProbeSet 11735607_a_at) / Fold change (Aza/veh), FGFR1OP (ProbeSet 11751329_s_at) / Fold change (ACY-1035/veh), FGFR1OP (ProbeSet 11751329_s_at) / Fold change (Aza/veh), VPS36 (ProbeSet 11739960_a_at) / Fold change (ACY-1035/veh), VPS36 (ProbeSet 11739960_a_at) / RFU SYPL1 (11715823_x_at) / Fold change /veh SYPL1 (11715823_x_at) / RFU IGFBP7 (11715501_s_at) / Fold change /veh IGFBP7 (11715501_s_at) / RFU REEP3 (11722064_at) / Fold change /veh REEP3 (11722064_at) / RFU IGLL1 (11728026_x_at) / Fold change /veh IGLL1 (11728026_x_at): dose or concentration left out as unconfirmed. The settings on record: ProbeSet 11743510_at; LIST D.

As for `Nc1ccc(-c2cccs2)cc1NC(=O)c1ccc2c(c1)cc(C1CC1)n2CCN1CCOCC1` [ACY-1035], the “RFU, UFL1” value is 325.04 RFU.
